The source of these data is US7220729B2, “Huntington's Disease Treatment” (Academia Sinica, priority 2004, dated 2007).

The subject of experiment [1] is adenylyl cyclase. The experiment is described as follows: Adenylyl cyclase activity assay on striatal membrane fractions. The note with it: striatal membranes of R6/2 mice compared with wild type mice. The experiment is classed as biochemical, mouse.
Protocol: Briefly, striatal tissues were isolated from the mice and sonicated in a lysis buffer (0.4 mM EDTA, 1 mM EGTA, 25 mM Tris-HCl, 250 mM sucrose, 0.1 mM leupeptin, and 40 μM PMSF, pH 7.4) using a W-380 sonicator (Ultrasonics, Farmingdale, N.Y., USA) at a setting of 20% output power for a total of 45 seconds. The resultant homogenate was centrifuged at 50,000×g for 30 minutes and the P1 membrane fractions and the soluble fractions were collected. The adenylyl cyclase activity assay was performed at 37° C. for 10 minutes in a 400-μl reaction mixture containing 1 mM ATP, 100 mM NaCl, 50 mM Hepes, 0.2 mM EGTA, 100 μM rolipram, 6 mM MgCl2, 1 μM GTP, and 20 μg of membrane protein. The reactions were stopped by adding 0.6 ml of 10% TCA. The cAMP formed was isolated by Dowex chromatography (Sigma, St. Louis, Mo., USA) and was assayed to the method described in Chern et al. The enzymatic reaction was in a linear range for up to 30 minutes with up to 40 μg of membrane proteins.
In experiment [2] the test system is R6/2 mice. The experiment is described as follows: Locomotor activity (beam breaks in activity monitor) of R6/2 mice. The experiment is classed as in vivo, mouse. The following applies: week 2 after administration, 5 μg/g i.p. daily, vs vehicle, statistically significant (Student's t-test). On the procedure:
Twenty-four hours after each administration, the locomotor activity of each mouse was measured for 10 minutes according to the method described in Lee et al., Chin. J. Physiol. 1992;35:317–336. Briefly, each mouse was placed in an activity monitor (Coulbourn Instruments, Allentown, Pa., USA) equipped with 16×16 horizontal sensors, which were used to monitor the mouse's floor position. The locomotor activity was measured by the total number of beam breaks in an X-Y plane recorded every 10 minutes.

Experiment [3] concerns R6/2 mice. Nature of the experiment: Motor coordination by rotarod performance. The experiment is classed as in vivo, mouse. The note with it: treatment from 7 weeks of age, vs vehicle. The text has this:
The motor coordination of each mouse was also examined by rotarod performance using standard techniques. […] It is known that the motor coordination of an R6/2 mouse starts to deteriorate at the age of 4 weeks, which is 3 weeks prior to the time of the CGS 21680 treatment. It is expected that CGS 21680 administration prior to 4 week of age might improve the motor coordination of an R6/2 mouse.
In general terms: In the rotarod test animals must keep their balance on a rotating rod.

Experiment [4] concerns R6/2 mice. The experiment is described as follows: Blood glucose level in R6/2 mice. The class given is in vivo, mouse. The note with it: chronic treatment, untreated R6/2 higher than wild type by approximately 1-fold. On the procedure: Hyperglycemia has been found in HD patients and R6/2 mice. […] The above-described R6/2 mice and wild type littermates were decapitated and blood samples (1 to 1.5 ml) were collected from each mouse using standard techniques. Blood glucose levels were measured using ABBOTT Alcyon 300i (ABBOTT Labs, USA).

Experiment [5] concerns AMPK. The experiment is described as follows: Western blot of AMPK protein and Thr172 phosphorylation in striatal cytosolic fraction of treated R6/2 mice. The class given is in vivo, mouse. The following applies: striatum of R6/2 mice, 5 μg/g i.p. once a day up to 3.5 weeks. On the procedure: Male R6/2 mice and wild type littermates were obtained from Jackson Laboratories (Bar Harbor, Me., USA) and were mated with female control mice (B6CBAFI/J). Each offspring was genotyped by PCR using genomic DNA extracted from the tail to ensure that the number of CAG repeats remained approximately 150. Primers used were [NT] ID NO:1) and [NT] ID NO:2). All animal experiments were performed under protocols approved by the Academia Sinica Institutional Animal Care and Utilization Conunittee, Taiwan. […] Then, the striatal cytosolic fraction was collected from each mouse and subjected to Western blot analysis using the standard techniques as described in Rutter et al., Biochem. J. 2003;375:1-16. More specifically, membrane fractions were combined with a 2× sample buffer containing 125 mM Tris-HCl (pH 6.8), 20% glycerol, 1% SDS, 15% 2-mercaptoethanol, 200 mM dithiothreitol, and 0.01% bromphenol blue; boiled for 5 minutes; centrifuged to remove the insoluble material; and then separated on 8% separating gels. […] The phosphorylation of AMPK at Thr172 was quantified by densitometry of the anti-AMPK-P immunoreactive bands using ImageQuant v.3.15 (Molecular Dynamics).
Background: In western blotting, separated proteins are transferred to a membrane and probed.

For experiment [6], the system named is NGF, CNTF, GDNF, BDNF, bFGF. The experiment is described as follows: Quantitative real-time RT-PCR of striatal neurotrophic factors. The experiment is classed as in vivo, mouse. The note with it: R6/2 mice, mRNA normalized to GAPDH, vs vehicle. On the procedure:
Total RNA was purified from each of the above-described administrated mice and their littermates, and was treated with RNase-free DNase I (RQI, Promega, Madison, Wis., USA) following the manufacturer's protocol to remove genomic DNA. cDNA synthesis and quantitative real-time RT-PCR were performed using the […] One-Step RT-PCR kit (Clontech, Palo Alto, Calif., USA) containing SYBR Green I (BioWhittaker Molecular Applications; BMA, Rockland, Me., USA). More specifically, the first-strand cDNA was synthesized at 50° C. for 60 minutes and denatured at 95° C. for 10 minutes. PCR reactions were then carried out in the same tubes using the following conditions for 40 cycles: 95° C. for 30 seconds, 60° C. for 30 seconds, and 68° C. for 60 seconds.
Independent RT-PCRs were performed using the same RNAs for each neurotrophic factor gene (target gene) and glyceraldehyde-3-phosphate dehydrogenase (GAPDH, reference gene). Real-time fluorescence monitoring and melting curve analysis were performed using Rotor-Gene 3000 (Corbett Research, Sydney, Australia). […] Data were analyzed by the Rotor-Gene 3000 operating software version 4.6.94 (Corbett Research) to determine the threshold cycle (CT) above the background for each reaction. The relative transcript amount of each target gene, calculated using standard curves of serial RNA dilutions, was normalized to that of GAPDH amplified from the same RNA.
A general note: In qPCR the cycle at which signal appears reflects the starting amount.

Experiment [7] has as its system R6/2 mice. The experiment is described as follows: Striatal atrophy / lateral ventricle enlargement on coronal brain sections. The class given is in vivo, mouse. The note with it: R6/2 mice at 12 weeks old; vehicle 1.63±0.14, p<0.001, n=5. As to the method: Striatal atrophy is one of the major characteristics of HD. In R6/2 mice, marked progressive atrophy of the striatum was found at the age of 3 to 13 weeks (Ferrante et al., J. Neurosci. 2000;20:4389–4397). Thus, the above-described CGS 21680-treated and vehicle-treated R6/2 mice were examined for striatal atrophy.
Each of the mice was anesthetized using sodium pentobarbital (100 μg/g), and intracardially perfused with 4% paraformaldehyde in 0.1 M phosphate buffer (PB, pH 7.4). The brain was carefully removed, post-fixed with 4% paraformaldehyde/0.1 M PB for 2–5 hours, and immersed in 30% glycerol in 0.1 M PB. Then, it was cut at 20 μm on a freezing microtome (CM3050, Leica Microsystems Nussloch, Nussloch, Germany). Serial-cut coronal tissue sections from the rostral segment of the neostriatum to the level of the anterior commissure (interaural 5.34 mm/bregma 1.54 mm to interaural 3.7 mm/bregma −0.1 mm) were used to define atrophy of the striatum and enlargement of the lateral ventricles. Total areas of the striatum or the lateral ventricles were measured using the software NIH Image 1.62. Nissl-stained sections were quantified by counting the corresponding types of cells in defined areas of photomicrographs taken using a phase contrast microscope.

For the molecule `CCNC(=O)[C@H]1O[C@@H](n2cnc3c(N)nc(NCCc4ccc(CCC(=O)O)cc4)nc32)[C@H](O)[C@@H]1O` [CGS21680], the “adenylyl cyclase activities induced by the compound, R6/2 vs wild type mice” value in experiment [1] is “much higher level than those in the wild type mice”. In addition, the locomotor activity entry in experiment [2] is “did not exhibit such deterioration, but showed improvement in the locomotor activity”. Also, the “motor coordination (rotarod performance)” value in experiment [3] is reported as “No difference was found”. Also, the blood glucose level entry in experiment [4] is reported as “reduced the aberrantly elevated blood glucose level in R6/2 mice to a level comparable to that in the wild type mice”. In experiment [5] (vs vehicle), the “reduction of AMPK phosphorylation level (Thr172)” value is given as “about 35%”. The AMPK protein level entry in experiment [5] (compared with vehicle R6/2 and wild type) is on record as “about the same AMPK protein level”. Also, the “striatum expression level of trophic factors” value in experiment [6] is recorded as “did not change”. In experiment [7], the “size of ventricular enlargement” value came out at 0.91±0.14 mm^2.
